Reference: paper PMC7655722 (Organic letters, 2020)
Like-named read-outs stand apart in the source and are kept apart here.

Key:
[1] = tested on: cancer stem cells (CSCs) in MDA-MB-231 cell line; conditions: MDA-MB-231 cell line ref 12; cited from earlier work
[2] = tested on: stem-like cells with epithelial-mesenchymal transition (EMT) properties; conditions: cited from earlier work
[3] = in vitro; format: cell-based; conditions: human
[4] = tested on: MCF10A; assay: cells; format: cell-based; conditions: Homo sapiens, MCF-10A, read-out: IC50, cell viability
[5] = tested on: MDA-MB-231; assay: cells; format: cell-based; conditions: for IC50: Homo sapiens
[6] = tested on: chronic lymphocytic leukemia (CLL); conditions: chronic lymphocytic leukemia (CLL) ref 8; cited from earlier work
[7] = tested on: glioblastoma Hs683; conditions: glioblastoma Hs683 ref 9, 10; cited from earlier work
[8] = tested on: P335; conditions: P335 ref 6; cited from earlier work

Row | Structure (SMILES) | effect on CD44/CD24-positive population [1] | induction of cell death in stem-like cells with EMT properties [2] | IC50 [3] | IC50 [4] | IC50 ([5]; MDA-MB-231, read-out: IC50, cell viability) | IC50 ([5]; MDA-MB-231, read-out: cytotoxicity (IC50) as quoted in text) | selectivity between cancer vs non-cancer cell line ([5]; MDA-MB-231 vs MCF-10A) | IC50 [6] | IC50 [7] | IC50 [8]
1 | CC(C)=CCC[C@H](C)[C@@]1(O)CC[C@]2(C)C[C@H]3[C@H](C(=O)C[C@@]3(C)O)/C(C=O)=C\C[C@H]21 [compound 2] | significantly reducing the CD44/CD24-positive population | – | – | – | – | – | – | – | – | –
2 | CC(C)=C[C@H]1C[C@H](C)[C@]2(CC[C@]3(C)C[C@H]4[C@H](C(=O)C[C@@]4(C)O)/C(C=O)=C\C[C@H]32)O1 [OpA, ophiobolin A] | significantly reducing the CD44/CD24-positive population | specifically induces cell death | ~0.2 µM | 0.198 ± 0.076 µM | 0.069 ± 0.024 µM | ~0.069 µM | ~ 3 fold | 0.001 µM | 0.62 µM | 0.063 µM
